Experimental data as given in patent publication US7018989B2, “Chemical compounds” (University College Cardiff Consultants, LTD, priority 1995, dated 2006).
Where two headings read alike, the source gives them in different places.

Legend:
HIV-2 [1] = experiment: Inhibition of HIV-2 in CEM/TK- cells; type: cell-based
Method in brief: (§1)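 Infection used 100 CCID50 per mL on 5×10^5 cells/mL, followed by exposure to serial compound dilutions. Read-out: microscopic giant cell scoring after 4 days (CEM); trypan blue viable cell count after 5 days (MT-4).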

HIV-1 [2] = experiment: microbe, parasite or virus in culture
Method in brief: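 5×10^5 cells/mL, 100 CCID50/mL virus, + compound dilutions. CEM: giant cells scored microscopically, day 4. MT-4: viability by trypan blue, day 5.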

III-B strain of HIV-1 = experiment: microbe, parasite or virus in culture; type: cell-based
Protocol: (§2) C8166 cells. Cells were grown in RPMI 1640 with 10% calf serum. 4×10^4 cells per microtiter plate well were mixed with 5-fold dilutions of compound prior to addition of 10 CCID50 units of III-B strain of HIV-1 and incubated for 5–7 days (Betbeder et al. Antiviral Chem. Chemother. 1, 241–247, 1990). Formation of syncytia was examined from 2 days post-infection. Culture fluid was collected at 5–7 days and gp120 antigen production measured by ELISA (Mahmood and Hay, J. Immunol. Meth., 151, 9–13, 1992). […] Cell viability of infected and uninfected cells were assessed by the MTT-Formazen method (Pauwels et al. J. Virol. Meth. 20, 309–321, 1988).
(§3) Each assay was carried out in duplicate, on at least two separate occasions, and data quoted are the average of each separate assay.

HIV RT = HIV RT (Human immunodeficiency virus type 1 group M subtype B, UniProt P03366); experiment: Inhibition of HIV reverse transcriptase; type: biochemical; conditions: Table 4
HIV1 d4T-Sensitive = experiment: HIV1 in HeLa cells, d4T-sensitive strain; type: cell-based, HIV-1; conditions: Table 4
MT-4 cells = experiment: Toxicity to MT-4 cells; type: cell-based, human; conditions: Table 6; mean of two or more repeat experiments; read-out: CC50 MT4: CC50 for toxicity to MT-4 cells
Protocol: (§4) Cells were infected with HIV-1 as previously described [Balzarini et al. AIDS (1991), 5, 21–28]. Briefly, 5×10^5 cells per milliliter were infected with HIV-1 or HIV-2 at 100 CCID50 (50% cell culture infective dose) per milliliter of cell suspension. Then 100 μL of the infected cell suspension was transferred to microtiter plate wells and mixed with 100 μL of the appropriate dilutions of the test compounds. After 4 days giant cell formation was recorded microscopically in the HIV-infected cell cultures [CEM], and after 5 days the number of viable cells was determined by trypan blue staining of the HIV-infected cell cultures [MT4].
(§5) The data columns are, in order: • HIV1 MT4: EC50 in μM for inhibition of HIV-1 in MT4 cells. • HIV2 MT4: EC50 in μM for inhibition of HIV-2 in MT4 cells. • CC50 MT4: CC50 in μM for toxicity to MT-4 cells. • HIV1 CEM: EC50 in μM for inhibition of HIV-1 in CEM cells. • HIV2 CEM: EC50 in μM for inhibition of HIV-2 in CEM cells. • HIV2 CEM-TK-: EC50 in μM for inhibition of HIV-2 in CEM/TK^− cells. • CC50 CEM: CC50 in μM for toxicity to CEM cells. • EC50 MSV: EC50 in μM for inhibition of MSV • MCC MSV: Minimum cytotoxic concentration in MSV assay

HIV-2 [3] = experiment: Inhibition of HIV-2 in MT4 cells; type: cell-based; conditions: Table 6; mean of two or more repeat experiments; read-out: HIV2 MT4: EC50 for inhibition of HIV-2 in MT4 cells
Protocol: as §4, §5

HIV-2 [4] = experiment: Inhibition of HIV-2 in CEM cells (giant cell formation); type: cell-based
Method in brief: as §1

HIV-1 [5] = experiment: Inhibition of HIV-1 in MT4 cells; type: cell-based; conditions: Table 6; mean of two or more repeat experiments; read-out: HIV1 MT4: EC50 for inhibition of HIV-1 in MT4 cells
Protocol: as §4, §5

HIV1 d4T-Resistant = experiment: HIV1 in HeLa cells, d4T-resistant strain; type: cell-based, HIV-1; conditions: read-out: EC50 HeLa HIV1 d4T-Resistant
CEM cells = experiment: Toxicity to CEM cells; type: cell-based, human; conditions: Table 6; mean of two or more repeat experiments
C8166 cells = experiment: Toxicity in C8166 cells (MTT-Formazen); type: cell-based; conditions: Table 3
Protocol: as §2, §3

[6] = tested on: Moloney Sarcoma Virus [MSV]; experiment: MSV-induced tumour formation and survival in NMRI mice; type: in vivo; conditions: MSV infected mice; 50 [low] or 200 [high] mg/kg/day i.p. for 4 days
Protocol: Drug doses are 50[low ] or 200 [high] mg/kg/day given i.p. for 4 days starting 1 hour before MSV inoculation.
In Vivo Testing Inhibitory Effects of Test Compounds on the Initiation of MSV-Induced Tumour Formation in NRMI Mice and on the Survival of MSV Innoculated NMRI Mice.
Mice infected with Moloney Sarcoma Virus [MSV] were treated daily with either placebo, or d4T [at one of two doses] or with compound 324 at one of the same [equi-molar] doses.
Two- to three-day old NMRI mice (weighing—2 gram) were innoculated subcutaneously (s.c.) in the left hind leg with 50 μl MSV (100 foci forming units, as measured by in vitro determination of the virus-induced transformation of murine C3H embryo fibroblast cells). At 4 to 5 days post-infection, tumours develop and rapidly increase in volume upon further aging of the mice. Within 10 to 12 days post-infection, mice (then weighing—5 to 6 gram) die from the viral infection. Drug treatment started 1 hour prior to infection of the virus, and further compound administration was given daily i.p. for an additional 3 days. The mean day of tumour initiation (±standard deviation) and the mean day of survival of the mice (±standard deviation) was calculated and statistical significance of the average delay of tumour formation and the mean day of survival in the treated groups versus the untreated (control) group was assessed by two-tailed student's t-test.

[7] = tested on: HIV-1 (GB8 or IIIB strains); experiment: Anti-HIV-1 activity in JM cells; type: cell-based; conditions: Human immunodeficiency virus 1, IIIB; HIV1 in JM; Table 2
Protocol: as §2
JM cells JM cells, which are relatively resistant to the antiviral effects of AZT and a number of its derivatives, were infected with HIV-1 strains and the antiviral and toxic effects of compounds assessed as for C8166 cells. Both GB8 or IIIB strains of HIV1 were used, with no delectable differences in the end-points noted.
as §3

[8] = Toxicity in C8166 cells (MTT-Formazen); type: cell-based; conditions: human, Table 3
Protocol: as §2, §3

[9] = Human immunodeficiency virus 1, CCRF-CEM, read-out: EC50 CEM HIV1
[10] = Human immunodeficiency virus 1, C8166, Table 4, read-out: EC50 8166 HIV1
[11] = Table 4, read-out: EC50 CEM TK− HIV2
[12] = Table 6, mean of two or more repeat experiments, read-out: HIV2 CEM-TK-: EC50 for inhibition of HIV-2 in CEM/TK^− cells
[13] = read-out: EC50 CEM HIV1, Table 4
[14] = read-out: HIV1 CEM: EC50 for inhibition of HIV-1 in CEM cells, Table 6, mean of two or more repeat experiments
[15] = Table 6, mean of two or more repeat experiments, read-out: HIV2 CEM: EC50 for inhibition of HIV-2 in CEM cells
[16] = HIV1 in C8166 cells, Table 3, read-out: Activity EC50
[17] = Table 4, read-out: EC50 8166 HIV1
[18] = Human immunodeficiency virus 2, CEM-TK(-), read-out: EC50 CEM TK^−
[19] = Human immunodeficiency virus 1, HeLa

SMILES	EC50 (HIV-2 [1]; [12])	CC50 (MT-4 cells)	EC50 (HIV-2 [3])	EC50 (HIV-1 [2]; [14])	EC50 (HIV-2 [4]; [15])	EC50 (HIV-1 [5])	Selectivity CC50/EC50 × 10^3 (III-B strain of HIV-1)	EC50 (III-B strain of HIV-1; [16])	CC50 (CEM cells)	CC50 (C8166 cells)	further results
Cc1cn([C@H]2C[C@H](N=[N+]=[N-])[C@@H](CO)O2)c(=O)[nH]c1=O [AZT, 3′-azido-3′-deoxythymidine, reference compound]	–	–	–	–	–	–	–	–	–	–	EC50 (HIV-2 [1]; Human immunodeficiency virus 2, CEM-TK(-), Table 4, read-out: EC50 CEM TK− HIV2): > 100 µM; EC50 (HIV-1 [2]; [9]): 0.003 µM; EC50 (III-B strain of HIV-1; [10]): 0.008 µM; EC50 HIV RT (HIV RT): Inactive
COC(=O)C(C)NP(=O)(OCC1C=CC(n2cc(C)c(=O)[nH]c2=O)O1)Oc1cccc(C(F)(F)F)c1 (stereo not drawn) [Compound 526, 2′,3′-dideoxy-2′,3′-didehydrothymidine 5′-(m-trifluromethylphenylmethoxyalaninyl) phosphoramidate]	0.12 µM	10 µM	0.11 µM	0.15 µM	0.15 µM	0.05 µM	250 × 10^3	0.0008 µM	30 µM	200 µM	EC50 (HIV-2 [1]; [11]): 0.06 µM; EC50 (HIV1 d4T-Sensitive): 0.04 µM; EC50 (HIV-1 [2]; [13]): 0.08 µM; EC50 (HIV1 d4T-Resistant; Table 4): 0.05 µM; EC50 (III-B strain of HIV-1; [17]): 0.0008 µM
COC(=O)C(C)NP(=O)(OC[C@@H]1C=C[C@H](n2cc(C)c(=O)[nH]c2=O)O1)Oc1cc(Cl)cc(Cl)c1 (stereo partly drawn) [Compound 546, 2′,3′-dideoxy-2′,3′-didehydrothymidine 5′-(3,5-dichlorophenylmethoxyalaninyl) phosphoramidate]	0.12 µM	10.5 µM	0.12 µM	0.12 µM	0.15 µM	0.037 µM	100 × 10^3	0.001 µM	26.9 µM	100 µM	EC50 (HIV-2 [1]; [11]): 0.06 µM; EC50 (HIV1 d4T-Sensitive): 0.03 µM; EC50 (HIV-1 [2]; [13]): 0.06 µM; EC50 (HIV1 d4T-Resistant; Table 4): 0.04 µM; EC50 (III-B strain of HIV-1; [17]): 0.001 µM
COC(=O)C(Cc1ccccc1)NP(=O)(OC[C@@H]1C=C[C@H](n2cc(C)c(=O)[nH]c2=O)O1)Oc1ccccc1 (stereo partly drawn) [Compound 863, 2′,3′-dideoxy-2′,3′-didehydrothymidine-5′-(phenyl N-methoxy-phenylalaninyl) phosphoramidate]	0.33 µM	34 µM	0.4 µM	0.8 µM	1.35 µM	0.2 µM	31.2 × 10^3	0.016 µM	216 µM	500 µM	–
COC(=O)C(CC(C)C)NP(=O)(OCC1C=CC(n2cc(C)c(=O)[nH]c2=O)O1)Oc1ccccc1 (stereo not drawn) [Compound 864, 2′,3′-dideoxy-2′,3′-didehydrothymidine-5′-(phenyl N-methoxy-leucinyl) phosphoramidate]	0.4 µM	62 µM	0.5 µM	1.1 µM	2.23 µM	0.2 µM	>62.5 × 10^3	0.016 µM	≥ 250 µM	> 1000 µM	–
COC(=O)C(NP(=O)(OCC1C=CC(n2cc(C)c(=O)[nH]c2=O)O1)Oc1ccccc1)C(C)C (stereo not drawn) [Compound 865, 2′,3′-dideoxy-2′,3′-didehydrothymidine-5′-(phenyl N-methoxyvalinyl) phosphoramidate]	4 µM	≥ 250 µM	11.2 µM	12.5 µM	12.5 µM	3.6 µM	>1.25 × 10^3	0.8 µM	> 250 µM	> 1000 µM	–
Cc1cn(C2C=CC(COP(=O)(NC(Cc3ccccc3)C(=O)OCc3ccccc3)Oc3ccccc3)O2)c(=O)[nH]c1=O (stereo not drawn) [Compound 866, 2′,3′-dideoxy-2′,3′-didehydrothymidine-5′-(phenyl N-methoxyglycinyl) phosphoramidate]	7 µM	≥ 250 µM	6.7 µM	6 µM	6 µM	1.3 µM	>1.25 × 10^3	0.8 µM	≥ 250 µM	> 1000 µM	–
COC(=O)C(CCSC)NP(=O)(OCC1C=CC(n2cc(C)c(=O)[nH]c2=O)O1)Oc1ccccc1 (stereo not drawn) [Compound 867, 2′,3′-dideoxy-2′,3′-didehydrothymidine-5′-(phenyl N-methoxymethioninyl) phosphoramidate]	0.34 µM	22 µM	0.4 µM	0.6 µM	0.8 µM	0.2 µM	>62.5 × 10^3	0.0016 µM	≥ 250 µM	> 1000 µM	–
Cc1cn([C@H]2C=C[C@@H](CO)O2)c(=O)[nH]c1=O [d4T, 2′,3′-dideoxy-2′,3′-didehydrothymidine, reference compound]	–	–	–	–	–	–	0.6 × 10^3	–	–	–	EC50 (HIV-2 [1]; [18]): > 100 µM; EC50 (HIV-2 [1]; Human immunodeficiency virus 2, CEM-TK(-), read-out: EC50 CEM TK− HIV2): > 100 µM; EC50 (HIV1 d4T-Sensitive; [19]): 0.86 µM; delay in death [6]: failed to give any detectable delay; delay in tumour appearance [6]: failed to give any detectable delay; EC50 (HIV-1 [2]; [9]): 0.5 µM; EC50 (HIV-2 [4]; [18]): 1.2 µM; EC50 [7]: 0.8 µM; EC50 (HIV1 d4T-Resistant; [19]): 3.38 µM; EC50 (III-B strain of HIV-1; [10]): 0.08 µM; EC50 (III-B strain of HIV-1; Human immunodeficiency virus 1, HIV1 in C8166, Table 2, read-out: EC50 C8166): 0.08 µM; EC50 (III-B strain of HIV-1; Human immunodeficiency virus 1, HIV1 in C8166 cells, Table 3, read-out: Activity EC50): 0.08 µM; EC50 HIV RT (HIV RT): Inactive; CC50 [8]: 50 µM
